Results: ChEMBL document CHEMBL1201862, “PubChem BioAssay data set” (2004)
Active and inactive are the calls of the source.

Key:
Large T antigen = Large T antigen (Simian virus 40, UniProt P03070); type: functional, Betapolyomavirus macacae;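 further: Confirmatory-stage PubChem screen for compounds that inhibit SV40 T antigen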
[1] = viability of uninfected HEp-2 cells – cell-based, HTS, cytotoxicity control for RSV inhibitor project, dose response (AID 2410); type: functional; conditions: human respiratory syncytial virus
[2] = HEK-293T cell viability reduction – luminescence, B-cell screen hits, cytotoxicity control for BCR NF-kB inhibitor project, dose response (AID 489021); type: functional, cell-based;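 further: HEK-293T cells carrying an NF-kB luciferase reporter; cells exposed to compound for about 14 hours before viability readout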
[3] = biological target: T1, Carboxy-terminal domain RNA polymerase II polypeptide A small phosphatase 1 (Homo sapiens, UniProt Q9GZU7); assay: CTDSP1 inhibitors, concentration-response, biochemical, absorbance readout, ultra-high-throughput screen actives (AID 540297); type: functional
T1 sequence (Q9GZU7 whole entry): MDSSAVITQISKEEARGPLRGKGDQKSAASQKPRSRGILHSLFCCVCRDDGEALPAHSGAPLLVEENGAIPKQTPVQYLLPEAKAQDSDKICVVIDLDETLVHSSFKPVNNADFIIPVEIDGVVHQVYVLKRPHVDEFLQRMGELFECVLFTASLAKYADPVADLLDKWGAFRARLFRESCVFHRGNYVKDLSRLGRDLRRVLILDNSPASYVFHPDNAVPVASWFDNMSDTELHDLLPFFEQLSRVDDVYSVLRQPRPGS

[4] = biological target: T2, Histone-lysine N-methyltransferase NSD2 (Homo sapiens, UniProt O96028); type: biochemical
T2 sequence (O96028 whole entry): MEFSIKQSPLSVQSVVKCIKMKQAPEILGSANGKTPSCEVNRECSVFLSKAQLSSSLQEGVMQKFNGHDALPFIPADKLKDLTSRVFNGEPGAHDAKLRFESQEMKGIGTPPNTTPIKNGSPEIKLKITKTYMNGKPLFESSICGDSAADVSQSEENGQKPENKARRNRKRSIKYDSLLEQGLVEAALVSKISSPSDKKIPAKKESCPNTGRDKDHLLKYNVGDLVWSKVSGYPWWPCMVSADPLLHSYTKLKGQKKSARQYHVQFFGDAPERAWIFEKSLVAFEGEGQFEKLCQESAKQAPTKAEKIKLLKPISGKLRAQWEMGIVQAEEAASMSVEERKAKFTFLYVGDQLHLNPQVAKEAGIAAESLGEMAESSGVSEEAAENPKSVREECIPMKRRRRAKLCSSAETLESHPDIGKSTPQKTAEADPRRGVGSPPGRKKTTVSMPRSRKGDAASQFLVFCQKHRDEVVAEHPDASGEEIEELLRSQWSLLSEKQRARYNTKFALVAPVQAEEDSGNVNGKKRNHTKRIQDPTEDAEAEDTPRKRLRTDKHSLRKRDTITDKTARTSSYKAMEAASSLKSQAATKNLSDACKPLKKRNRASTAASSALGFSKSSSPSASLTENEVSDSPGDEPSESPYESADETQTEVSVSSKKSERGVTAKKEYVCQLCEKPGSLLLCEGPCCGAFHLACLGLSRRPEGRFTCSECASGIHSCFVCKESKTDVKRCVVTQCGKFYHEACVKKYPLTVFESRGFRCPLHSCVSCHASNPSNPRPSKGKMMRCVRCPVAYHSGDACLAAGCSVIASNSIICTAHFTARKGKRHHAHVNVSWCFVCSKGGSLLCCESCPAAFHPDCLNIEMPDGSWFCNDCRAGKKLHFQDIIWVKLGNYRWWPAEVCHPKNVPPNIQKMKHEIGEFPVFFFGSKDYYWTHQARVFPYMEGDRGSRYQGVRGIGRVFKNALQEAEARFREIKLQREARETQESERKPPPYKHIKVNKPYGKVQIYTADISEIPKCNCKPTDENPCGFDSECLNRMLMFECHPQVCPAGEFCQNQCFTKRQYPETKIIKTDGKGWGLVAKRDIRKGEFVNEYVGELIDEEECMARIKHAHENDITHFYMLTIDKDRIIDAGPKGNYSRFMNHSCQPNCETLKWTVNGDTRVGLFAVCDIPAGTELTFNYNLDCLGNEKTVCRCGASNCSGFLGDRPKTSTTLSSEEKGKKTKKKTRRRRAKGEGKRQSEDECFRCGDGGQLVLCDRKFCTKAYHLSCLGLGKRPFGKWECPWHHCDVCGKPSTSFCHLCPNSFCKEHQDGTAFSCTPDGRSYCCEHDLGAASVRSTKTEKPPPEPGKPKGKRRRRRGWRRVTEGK

[5] = tested on: Streptococcus sp. 'group A'; assay: Streptococcus pyogenes SK(-)GAS viability under kanamycin – luminescence, BacTiterGlo, confirmation, counter-screen for streptokinase expression inhibitor project, dose response (AID 1900); type: functional, organism-based
Streptokinase A = biological target: T3, Streptokinase A (Streptococcus pyogenes serotype M1, UniProt P10520); assay: viability-normalized secreted streptokinase activity reduction – plasminogen activation absorbance, OD405, dose response (AID 1914); type: functional, Streptococcus pyogenes M1 GAS;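 further: secreted streptokinase activity via plasminogen activation per viability signal from cell pellet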
T3 sequence (P10520 whole entry): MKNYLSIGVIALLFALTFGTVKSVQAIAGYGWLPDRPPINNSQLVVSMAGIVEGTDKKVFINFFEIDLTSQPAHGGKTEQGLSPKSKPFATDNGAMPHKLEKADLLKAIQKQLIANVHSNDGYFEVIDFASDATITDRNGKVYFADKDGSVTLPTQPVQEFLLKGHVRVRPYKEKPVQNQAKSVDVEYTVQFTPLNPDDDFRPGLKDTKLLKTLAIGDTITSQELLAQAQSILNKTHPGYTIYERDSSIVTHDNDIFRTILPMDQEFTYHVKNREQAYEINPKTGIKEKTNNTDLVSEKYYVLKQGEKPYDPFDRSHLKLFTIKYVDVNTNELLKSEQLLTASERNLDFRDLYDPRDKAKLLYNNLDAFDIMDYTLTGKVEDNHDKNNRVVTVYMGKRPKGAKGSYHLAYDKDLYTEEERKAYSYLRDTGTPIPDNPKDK

Streptococcus = assay: GAS UMAA2166 growth inhibition – luminescence, BacTiterGlo, counter-screen for streptokinase expression inhibitor project, dose response (AID 1915); type: functional, organism-based;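 further: potency for reduction of bacterial viability or growth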
Vero = assay: cells; type: functional; conditions: Chlorocebus sabaeus
[6] = biological target: T4, Rac GTPase-activating protein 1 (Homo sapiens, UniProt Q9H0H5); assay: blockers of MgcRacGAP-driven Rac1 GTP hydrolysis – biochemical, ADP Hunter fluorescence, primary and confirmatory, confirmation (AID 624330); type: functional
T4 sequence (Q9H0H5 whole entry): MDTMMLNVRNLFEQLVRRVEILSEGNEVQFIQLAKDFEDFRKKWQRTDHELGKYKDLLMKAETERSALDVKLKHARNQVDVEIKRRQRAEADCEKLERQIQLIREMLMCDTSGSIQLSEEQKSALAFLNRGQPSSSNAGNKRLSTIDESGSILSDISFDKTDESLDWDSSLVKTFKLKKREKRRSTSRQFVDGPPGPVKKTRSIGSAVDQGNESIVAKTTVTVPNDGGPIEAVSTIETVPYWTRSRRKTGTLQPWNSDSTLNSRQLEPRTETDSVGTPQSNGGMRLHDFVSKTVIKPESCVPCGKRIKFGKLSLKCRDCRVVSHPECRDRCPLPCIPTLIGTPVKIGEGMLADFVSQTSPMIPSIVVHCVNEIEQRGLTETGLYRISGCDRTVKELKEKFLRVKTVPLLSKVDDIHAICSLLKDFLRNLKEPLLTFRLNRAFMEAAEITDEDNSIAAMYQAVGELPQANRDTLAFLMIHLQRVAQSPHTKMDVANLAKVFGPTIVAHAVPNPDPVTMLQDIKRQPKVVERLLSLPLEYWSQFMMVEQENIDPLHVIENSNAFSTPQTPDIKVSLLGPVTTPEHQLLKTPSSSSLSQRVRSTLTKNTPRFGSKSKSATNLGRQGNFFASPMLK

Caspase-6 = biological target: T5, Caspase-6 (Homo sapiens, UniProt P55212); assay: inhibition of CASP6 peptide cleavage – biochemical, VEID-R110 fluorescence, cherry-pick, dose response (AID 720632)
T5 sequence (P55212 whole entry): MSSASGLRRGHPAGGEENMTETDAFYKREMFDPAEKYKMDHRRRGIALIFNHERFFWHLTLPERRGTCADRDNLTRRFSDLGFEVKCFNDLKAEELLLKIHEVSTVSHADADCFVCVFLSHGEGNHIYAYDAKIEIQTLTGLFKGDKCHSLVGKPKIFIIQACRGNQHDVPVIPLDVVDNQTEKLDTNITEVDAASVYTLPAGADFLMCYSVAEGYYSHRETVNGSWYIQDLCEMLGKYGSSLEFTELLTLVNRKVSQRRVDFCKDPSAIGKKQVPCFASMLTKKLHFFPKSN

[7] = biological target: Luciferin 4-monooxygenase (Photinus pyralis, UniProt P08659); assay: inhibition of purified Photinus pyralis luciferase – biochemical, luminescence, dose response (AID 1891)
Chain of Luciferin 4-monooxygenase (P08659 whole entry): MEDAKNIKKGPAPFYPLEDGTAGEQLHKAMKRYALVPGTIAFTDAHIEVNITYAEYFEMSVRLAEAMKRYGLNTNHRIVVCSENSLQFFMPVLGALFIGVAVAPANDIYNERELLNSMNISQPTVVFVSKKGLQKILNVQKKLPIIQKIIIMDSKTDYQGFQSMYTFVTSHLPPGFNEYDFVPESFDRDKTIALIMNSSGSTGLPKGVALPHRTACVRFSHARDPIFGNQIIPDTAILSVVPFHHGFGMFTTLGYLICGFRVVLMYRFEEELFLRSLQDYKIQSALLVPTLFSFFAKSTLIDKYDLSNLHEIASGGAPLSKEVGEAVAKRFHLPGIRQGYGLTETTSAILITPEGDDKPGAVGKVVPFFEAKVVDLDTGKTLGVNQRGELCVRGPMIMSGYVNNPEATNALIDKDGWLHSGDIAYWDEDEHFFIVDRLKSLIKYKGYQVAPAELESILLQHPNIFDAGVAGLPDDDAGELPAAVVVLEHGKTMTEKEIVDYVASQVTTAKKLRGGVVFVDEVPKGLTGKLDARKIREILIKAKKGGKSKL

[8] = Luminescence Cell-Based Dose Confirmation HTS to Identify Inhibitors of Platelet Dense Granule Release. [Related pubchem assays: 1663 (Primary HTS), 1678 (Summary of Project)]; type: functional

Chain of Large T antigen (P03070 whole entry): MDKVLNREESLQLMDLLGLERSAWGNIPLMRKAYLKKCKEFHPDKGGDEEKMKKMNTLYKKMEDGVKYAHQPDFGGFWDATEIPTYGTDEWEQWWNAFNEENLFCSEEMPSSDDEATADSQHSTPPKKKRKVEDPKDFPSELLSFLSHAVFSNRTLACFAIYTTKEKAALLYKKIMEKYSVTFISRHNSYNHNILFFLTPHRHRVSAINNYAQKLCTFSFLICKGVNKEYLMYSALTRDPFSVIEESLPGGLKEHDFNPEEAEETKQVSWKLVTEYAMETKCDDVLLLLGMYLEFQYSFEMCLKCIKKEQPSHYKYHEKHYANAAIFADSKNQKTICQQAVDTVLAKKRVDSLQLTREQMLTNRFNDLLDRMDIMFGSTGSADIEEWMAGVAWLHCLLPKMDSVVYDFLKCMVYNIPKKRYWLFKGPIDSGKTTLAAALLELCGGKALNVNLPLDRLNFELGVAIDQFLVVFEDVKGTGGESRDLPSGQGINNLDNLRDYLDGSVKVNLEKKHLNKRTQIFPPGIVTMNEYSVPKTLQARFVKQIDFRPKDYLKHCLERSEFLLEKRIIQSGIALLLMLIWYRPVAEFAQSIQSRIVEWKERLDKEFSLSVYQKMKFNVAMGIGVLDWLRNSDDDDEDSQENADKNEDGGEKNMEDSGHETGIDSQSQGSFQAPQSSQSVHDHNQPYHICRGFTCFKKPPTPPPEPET

For `Cc1cc(-c2nnc(S)n2/N=C/c2c[nH]c3ccccc23)[nH]n1`, the IC50 (Large T antigen) was 64 µM (active).
With `Cc1nc([N+](=O)[O-])c(Sc2nc3cc([N+](=O)[O-])ccc3[nH]2)n1Cc1ccccc1` the CC50 [1] was 12.6 µM (active) and the IC50 [2] was > 80 µM (inactive).
For `CSc1nnc(C)c(/C=C/Nc2ccc(F)cc2F)n1`, the IC50 [3] was 13.3 µM (active).
For `Cc1ccc(NC(=O)CC2=NC(=O)C(CC(=O)Nc3ccccc3F)S2)cc1` (configuration not stated), the AC50 [4] was 19.1 µM (active).
For `Cc1oc(-c2ccccc2Cl)nc1Cn1cccc1C1=NC(c2ccccc2)CO1` (configuration not stated), the EC50 [5] was > 150 µM (not active), the EC50 (Streptokinase A) was > 50 µM (not active) and the EC50 (Streptococcus) was > 150 µM (not active). For the same molecule, the CC50 (Vero) was > 25 µM (active).
For `Cc1cc(O)ccc1N/C=C1\CCCC1=O`, the IC50 (Large T antigen) was 29.8 µM (active) and the IC50 [6] was 22.7 µM (active).
For `Cc1cccc(NC(=O)CSc2nc3nc(O)cc(O)c3s2)c1`, the IC50 [3] was 15.9 µM (active).
In the case of `O=c1c2ccccc2[nH]c2ccc(O)cc12`, the IC50 (Large T antigen) is reported as 9.16 µM (active) and the AC50 (Caspase-6) is reported as 17.7 µM (active).
In the case of `N/C(=N\N=C\c1ccc(O)c(O)c1)c1nonc1N`, the IC50 (Large T antigen) is reported as 23.4 µM (active), the EC50 [7] is reported as 1.67 µM (active) and the EC50 [8] is reported as 1.74 µM (active).
